Assays:
[1] = target: T1, Mcl-1/Bim interaction, recombinant human Mcl-1 (171-327) (Homo sapiens, UniProt Q07820); assay: Cell free Mcl-1: Bim Affinity Assay (Mcl-1 HTRF); format: binding; conditions: TR-FRET, 0.1 nM Mcl-1 (171-327), 0.05 nM biotin-Bim (51-76)
T1 construct: made in house
How it was run: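 Displacement of biotinylated Bim 51-76 peptide is followed by TR-FRET. Incubation runs overnight. Duplicate points are fitted with a four-parameter sigmoid to yield IC50.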

[2] = test system: OPM-2 human multiple myeloma cell line; assay: Cell Viability Assay (OPM-2 10 FBS); format: cell-based; conditions: OPM-2 cells, 16 h, CellTiter-Glo
Procedure: Cell Viability Assay (OPM-2 10 FBS)
Cells were seeded into 384-well plates at 3000 cells/well density in complete growth medium containing 10% FBS, and incubated for 16 h with serially diluted test compounds in a 37° C. incubator with 5% CO2. Cell viability was tested using CellTiter-Glo® assay (Promega, Madison, WI) according to the manufacturer recommendations. Luminescence was determined using an EnVision® Multilabel plate reader 25 min after the addition of detection reagent. IC50 values were then calculated with Xlfit using a logistical 4-parameter fit model in GraphPad Prism (GraphPad Software, San Diego, CA) or in Genedata Screener® (Genedata, Basel, Switzerland).

T1 sequence (Q07820 171-327): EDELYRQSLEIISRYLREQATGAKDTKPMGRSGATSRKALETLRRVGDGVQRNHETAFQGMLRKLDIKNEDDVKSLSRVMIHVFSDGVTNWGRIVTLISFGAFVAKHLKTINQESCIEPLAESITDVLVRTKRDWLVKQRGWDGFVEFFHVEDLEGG

Row | Compound | IC50 [1] | IC50 [2] | IC50 ([2]; Homo sapiens, OPM-2, 16 h)
1 | O=C1NS(=O)(=O)[C@@H](CCS(=O)(=O)Cc2ccccc2)CC/C=C/[C@H](O)[C@@H]2CC[C@H]2CN2C[C@@]3(CCCc4cc(Cl)ccc43)COc3ccc1cc32 (single isomer, unassigned) [Example 163] | 5.07 nM | 18900 nM | 
2 | C[C@H]1/C=C/[C@H](O)[C@@H]2CC[C@H]2CN2C[C@@]3(CCCc4cc(Cl)ccc43)COc3ccc(cc32)C(=O)NS(=O)(=O)C1 (single isomer, unassigned) [Example 164] | 1.44 nM | 21900 nM | 
3 | CC1C=CC(O)C2CCC2CN2CC3(CCCc4cc(Cl)ccc43)COc3ccc(cc32)C(=O)NS(=O)(=O)C1 (single isomer, unassigned) [Example 165] | 3.8 nM |  | 25000 nM
4 | C[C@@H]1[C@@H](C)/C=C/[C@H](O)[C@@H]2CC[C@H]2CN2C[C@@]3(CCCc4cc(Cl)ccc43)COc3ccc(cc32)C(=O)NS1(=O)=O (single isomer, unassigned) [Example 166] | 0.418 nM | 2070 nM | 
5 | O=C1NS(=O)(=O)[C@H](CC2CCOCC2)CC/C=C/[C@H](O)[C@@H]2CC[C@H]2CN2C[C@@]3(CCCc4cc(Cl)ccc43)COc3ccc1cc32 (single isomer, unassigned) [Example 186] | 7.91 nM | 4660 nM | 
6 | O=C1NS(=O)(=O)[C@H](CC2CCOCC2)CC/C=C/[C@H](O)[C@@H]2CC[C@H]2CN2C[C@@]3(CCCc4cc(Cl)ccc43)COc3ccc1cc32 (single isomer, unassigned) [Example 187] | 0.248 nM | 426 nM | 
7 | CC[C@@H]1CC[C@H](O)/C=C/[C@@H]2CC[C@H]2CN2C[C@@]3(CCCc4cc(Cl)ccc43)COc3ccc(cc32)C(=O)NS1(=O)=O (single isomer, unassigned) [Example 197] | 1.12 nM | 2600 nM | 
8 | CCC1CCC(OC)C=CC2CCC2CN2CC3(CCCc4cc(Cl)ccc43)COc3ccc(cc32)C(=O)NS1(=O)=O (single isomer, unassigned) [Example 199] | 6.04 nM |  | 10200 nM
9 | CC1CC=CC(O)C2CCC2CN2CC3(CCCc4cc(Cl)ccc43)COc3ccc(cc32)C(=O)NS(=O)(=O)C1 (single isomer, unassigned) [Example 231] | 45.2 nM |  | 23100 nM
10 | O=C1NS(=O)(=O)CCC/C(Br)=C\[C@@H](O)[C@@H]2CC[C@H]2CN2C[C@@]3(CCCc4cc(Cl)ccc43)COc3ccc1cc32 (single isomer, unassigned) [Example 236] | 6.42 nM | 13700 nM | 
11 | CC1CCCS(=O)(=O)NC(=O)c2ccc3c(c2)N(CC2CCC2C(O)C1)CC1(CCCc2cc(Cl)ccc21)CO3 (single isomer, unassigned) [Example 240] | 2.54 nM |  | 3730 nM
12 | C[C@H]1CCCS(=O)(=O)NC(=O)c2ccc3c(c2)N(C[C@@H]2CC[C@H]2[C@@H](O)C1)C[C@@]1(CCCc2cc(Cl)ccc21)CO3 (single isomer, unassigned) [Example 241] | 4.85 nM | 7390 nM | 
13 | C[C@H]1CCCS(=O)(=O)NC(=O)c2ccc3c(c2)N(C[C@@H]2CC[C@H]2[C@@H](O)C1)C[C@@]1(CCCc2cc(Cl)ccc21)CO3 (single isomer, unassigned) [Example 242] | 3.05 nM | 467 nM | 
14 | C[C@H]1CCCS(=O)(=O)NC(=O)c2ccc3c(c2)N(C[C@@H]2CC[C@H]2[C@@H](O)C1)C[C@@]1(CCCc2cc(Cl)ccc21)CO3 (single isomer, unassigned) [Example 243] | 10.9 nM | 12100 nM | 
15 | CC1CC(N(C)C)CC(O)C2CCC2CN2CC3(CCCc4cc(Cl)ccc43)COc3ccc(cc32)C(=O)NS(=O)(=O)C1C (single isomer, unassigned) [Example 248] | 0.701 nM |  | 2160 nM
16 | CC1CC(C)C(C)S(=O)(=O)NC(=O)c2ccc3c(c2)N(CC2CCC2C(O)C1)CC1(CCCc2cc(Cl)ccc21)CO3 (single isomer, unassigned) [Example 259] | 44.4 nM |  | 23000 nM
17 | CC1CC(C)CS(=O)(=O)NC(=O)c2ccc3c(c2)N(CC2CCC2C(O)C1)CC1(CCCc2cc(Cl)ccc21)CO3 (single isomer, unassigned) [Example 270] | 1.03 nM | 116 nM | 
18 | CC1CC(C)CS(=O)(=O)NC(=O)c2ccc3c(c2)N(CC2CCC2C(O)C1)CC1(CCCc2cc(Cl)ccc21)CO3 (single isomer, unassigned) [Example 272] | 0.396 nM | 1190 nM | 
19 | O=C1NS(=O)(=O)[C@@H]2CCOC[C@H]2C/C=C/[C@H](O)[C@@H]2CC[C@H]2CN2C[C@@]3(CCCc4cc(Cl)ccc43)COc3ccc1cc32 (single isomer, unassigned) [Example 318] | 0.273 nM |  | 430 nM

Row | Compound | IC50 [1] | IC50 [2] | IC50 ([2]; Homo sapiens, OPM-2, 16 h)
20 | CO[C@H]1/C=C/C[C@@H]2COCC[C@H]2S(=O)(=O)NC(=O)c2ccc3c(c2)N(C[C@@H]2CC[C@H]21)C[C@@]1(CCCc2cc(Cl)ccc21)CO3 (single isomer, unassigned) [Example 320] | 0.329 nM | 342 nM | 
21 | CO[C@H]1/C=C/C[C@H]2COCC[C@@H]2S(=O)(=O)NC(=O)c2ccc3c(c2)N(C[C@@H]2CC[C@H]21)C[C@@]1(CCCc2cc(Cl)ccc21)CO3 (single isomer, unassigned) [Example 321] | 2.29 nM | 2180 nM | 
22 | COCCOC1C=CCC2COCCC2S(=O)(=O)NC(=O)c2ccc3c(c2)N(CC2CCC21)CC1(CCCc2cc(Cl)ccc21)CO3 (single isomer, unassigned) [Example 322] | 0.4 nM |  | 123 nM
23 | O=C1NS(=O)(=O)[C@@H]2CCC[C@@H]2C/C=C/[C@H](O)[C@@H]2CC[C@H]2CN2C[C@@]3(CCCc4cc(Cl)ccc43)COc3ccc1cc32 (single isomer, unassigned) [Example 323] | 2.02 nM |  | 2980 nM
24 | O=C1NS(=O)(=O)[C@H]2CCC[C@H]2C/C=C/[C@H](O)[C@@H]2CC[C@H]2CN2C[C@@]3(CCCc4cc(Cl)ccc43)COc3ccc1cc32 (single isomer, unassigned) [Example 324] | 1.68 nM | 1940 nM | 
25 | O=C1NS(=O)(=O)[C@@H]2CCC[C@H]2C/C=C/[C@H](O)[C@@H]2CC[C@H]2CN2C[C@@]3(CCCc4cc(Cl)ccc43)COc3ccc1cc32 (single isomer, unassigned) [Example 325] | 0.297 nM | 208 nM | 
26 | O=C1NS(=O)(=O)[C@@H]2CCC[C@H]2C/C=C/[C@H](O)[C@@H]2CC[C@H]2CN2C[C@@]3(CCCc4cc(Cl)ccc43)COc3ccc1cc32 (single isomer, unassigned) [Example 326] | 5.51 nM | 20000 nM | 
27 | Cn1cnc(CO[C@H]2/C=C/C[C@@H]3CCC[C@H]3S(=O)(=O)NC(=O)c3ccc4c(c3)N(C[C@@H]3CC[C@H]32)C[C@@]2(CCCc3cc(Cl)ccc32)CO4)n1 (single isomer, unassigned) [Example 328] | 0.44 nM | 428 nM | 
28 | Cn1cnc(CO[C@H]2/C=C/C[C@H]3CCC[C@@H]3S(=O)(=O)NC(=O)c3ccc4c(c3)N(C[C@@H]3CC[C@H]32)C[C@@]2(CCCc3cc(Cl)ccc32)CO4)n1 (single isomer, unassigned) [Example 329] | 2.58 nM | 3480 nM | 
29 | O=C1NS(=O)(=O)[C@@H]2CCCC[C@H]2C/C=C/[C@H](O)[C@@H]2CC[C@H]2CN2C[C@@]3(CCCc4cc(Cl)ccc43)COc3ccc1cc32 (single isomer, unassigned) [Example 331] | 0.248 nM |  | 284 nM
30 | O=C1NS(=O)(=O)[C@H]2CCCC[C@@H]2C/C=C/[C@H](O)[C@@H]2CC[C@H]2CN2C[C@@]3(CCCc4cc(Cl)ccc43)COc3ccc1cc32 (single isomer, unassigned) [Example 332] | 3.89 nM |  | 5580 nM
31 | O=C1NS(=O)(=O)[C@@H]2CCCC[C@H]2CCC[C@H](O)[C@@H]2CC[C@H]2CN2C[C@@]3(CCCc4cc(Cl)ccc43)COc3ccc1cc32 (single isomer, unassigned) [Example 333] | 0.96 nM | 3450 nM | 
32 | O=C1NS(=O)(=O)[C@H]2CCCC[C@@H]2CCC[C@H](O)[C@@H]2CC[C@H]2CN2C[C@@]3(CCCc4cc(Cl)ccc43)COc3ccc1cc32 (single isomer, unassigned) [Example 334] | 6.92 nM | 2660 nM | 
33 | O=C1NS(=O)(=O)[C@@H]2C[C@H](O)C[C@H]2C/C=C/[C@H](O)[C@@H]2CC[C@H]2CN2C[C@@]3(CCCc4cc(Cl)ccc43)COc3ccc1cc32 (single isomer, unassigned) [Example 335] | 0.263 nM | 2120 nM | 
34 | CO[C@@H]1C[C@H]2C/C=C/[C@H](OC)[C@@H]3CC[C@H]3CN3C[C@@]4(CCCc5cc(Cl)ccc54)COc4ccc(cc43)C(=O)NS(=O)(=O)[C@@H]2C1 (single isomer, unassigned) [Example 337] | 0.705 nM | 383 nM | 
35 | CC(=O)N1C[C@H]2C/C=C/[C@H](O)[C@@H]3CC[C@H]3CN3C[C@@]4(CCCc5cc(Cl)ccc54)COc4ccc(cc43)C(=O)NS(=O)(=O)[C@@H]2C1 (single isomer, unassigned) [Example 338] | 0.241 nM | 5620 nM | 
36 | CO[C@H]1/C=C/C[C@@H]2CN(C(C)=O)C[C@H]2S(=O)(=O)NC(=O)c2ccc3c(c2)N(C[C@@H]2CC[C@H]21)C[C@@]1(CCCc2cc(Cl)ccc21)CO3 (single isomer, unassigned) [Example 340] | 0.19 nM | 941 nM | 
37 | O=C1NS(=O)(=O)N2CCOC[C@H]2C/C=C/[C@H](O)[C@@H]2CC[C@H]2CN2C[C@@]3(CCCc4cc(Cl)ccc43)COc3ccc1cc32 (single isomer, unassigned) [Example 343] | 7.27 nM |  | 6490 nM

Source: patent US12091425B2 (AMGEN INC., priority 2016, dated 2024)
